Data as given in PMC11005723, “Development of Complementary Photo‐arginine/lysine to Promote Discovery of Arg/Lys hPTMs Interactomes” (Advanced Science, 2024).

Tests used:
[1] = molecular target: T1, PHD domain of UHRF1 (UHRF1PHD) (Homo sapiens, UniProt Q96T88); assay: ITC binding of H3 peptides to UHRF1PHD; details: 25 °C, 19 injections of peptide into protein, dz peptides carry pre‐installed biotin, done two times
T1 construct: the PHD domain of UHRF1 (UHRF1PHD)
T1 sequence (Q96T88 310-366 limits assumed): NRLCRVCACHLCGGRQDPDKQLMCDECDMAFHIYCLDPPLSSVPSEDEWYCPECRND
Protocol: Experiments were performed at 25 °C on a MicroCal PEAQ‐ITC automated (Malvern Instruments). Protein was loaded in the cell was titrated with 19 injections of peptides. The binding isotherm was fit with MicroCal PEAQ‐ITC Analysis software. The assay was done two times to confirm results.

[2] = molecular target: T2, tandem PHD domain of DPF2 (DPF2PHD) (Homo sapiens, UniProt Q92785); assay: ITC binding of native H3 peptides to DPF2PHD; details: 25 °C, native H3_1‐15 peptides without diazirine and biotin, n = 2, representative data
T2 construct: His‐DPF2PHD (residues 270–391) domain in pET28‐MHL vector; His (N); made in house; host or cells: Escherichia coli BL21 (DE3)
T2 sequence (Q92785 270-391): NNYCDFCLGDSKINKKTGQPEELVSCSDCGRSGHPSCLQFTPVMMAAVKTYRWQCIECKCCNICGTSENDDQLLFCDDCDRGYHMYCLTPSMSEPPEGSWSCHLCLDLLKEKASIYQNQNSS

[3] = molecular target: T3, PWWP domain of MSH6 (MSH6PWWP) (Homo sapiens, UniProt P52701); assay: ITC binding of H3R2me2a to MSH6PWWP; details: 25 °C
T3 construct: His‐MSH6PWWP (residues 87–198) domain in pET28‐MHL vector; His (N); made in house; host or cells: Escherichia coli BL21 (DE3)
T3 sequence (P52701 87-198): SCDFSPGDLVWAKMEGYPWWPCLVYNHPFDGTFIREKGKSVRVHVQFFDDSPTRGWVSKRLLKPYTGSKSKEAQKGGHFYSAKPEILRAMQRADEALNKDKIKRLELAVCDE
Protocol: His‐MSH6PWWP (residues 87–198) domain in pET28‐MHL vector. His‐ MSH6PWWP were expressed in Escherichia coli strain BL21 (DE3) (Novagen) with 0.5 mM IPTG induction at 16 °C in LB medium. After cell lysis by French Press Cell Disrupter (Thermo) and centrifugation, the supernatant was applied to a HisTrap (GE Healthcare) nickel column, and the bound protein was eluted with a linear imidazole gradient from 20 to 500 mM. And further purified by a HiLoad 16/60 Superdex 75 (GE Healthcare) gel filtration column. The pure protein were pooled and dialyzed in buffer (100 mM NaCl, 20 mM Tris, pH 7.5) with Slide‐A‐Lyzer (10000 MWCO). At last, the dialyzed protein were concentrated with to 5 mg mL^−1 and stored in −80 °C freezer for future use. Experiments were performed at 25 °C on a MicroCal PEAQ‐ITC automated (Malvern Instruments). Protein was loaded in the cell was titrated with 19 injections of peptides. The binding isotherm was fit with MicroCal PEAQ‐ITC Analysis software. The assay was done two times to confirm results.

RBBP4 = molecular target: T4, RBBP4 (Homo sapiens, UniProt Q09028); assay: ITC binding of native H3 peptides to RBBP4; details: H3R2me2a versus H3R2, from ITC Kd
T4 construct: DNA fragment encoding RBBP4/7 (1‐ 425) was cloned into pFBOH‐LIC donor plasmid; His (inferred from Ni-NTA purification; vector pFBOH-LIC); made in house; host or cells: sf9 insect cells (baculovirus)
T4 sequence (Q09028 whole entry, the tested form may be a part): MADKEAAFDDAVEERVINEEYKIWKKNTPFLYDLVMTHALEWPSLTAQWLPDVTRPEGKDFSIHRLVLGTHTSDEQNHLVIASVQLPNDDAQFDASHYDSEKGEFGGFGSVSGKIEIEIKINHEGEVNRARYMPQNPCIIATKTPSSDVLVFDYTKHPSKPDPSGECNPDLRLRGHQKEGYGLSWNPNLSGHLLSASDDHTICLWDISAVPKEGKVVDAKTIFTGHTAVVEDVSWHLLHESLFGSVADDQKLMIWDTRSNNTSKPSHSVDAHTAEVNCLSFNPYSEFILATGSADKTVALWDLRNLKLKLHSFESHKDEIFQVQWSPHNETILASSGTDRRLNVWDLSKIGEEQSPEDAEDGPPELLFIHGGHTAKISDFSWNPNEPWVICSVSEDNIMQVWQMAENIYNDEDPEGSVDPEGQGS
Protocol: (§1) DNA fragment encoding RBBP4/7 (1‐ 425) was cloned into pFBOH‐LIC donor plasmid. The resulting plasmid was transformed into DH10Bac Competent E. coli cells (Invitrogen) and a recombinant Bacmid DNA was purified and followed by a recombinant baculovirus generation in sf9 insect cells. sf9 cells grown in HyQ SFX insect serum‐free medium (Thermo Scientific) were infected with 10 mL of P3 viral stocks per 1 L of suspension cell culture and incubated at 27 °C using a platform shaker set at 150 rpm. The cells were harvested by centrifugation (4000 rpm for 10 min at 4 °C) after 72 h of post‐infection time when viability dropped to 70–80%. […] Fractions were assessed by SDS‐PAGE electrophoresis and those containing pure protein were pooled, concentrated, and flash‐frozen for storage at −80 °C. […]

RBBP7 = molecular target: T5, RBBP7 (Homo sapiens, UniProt Q16576); assay: ITC binding of native H3 peptides to RBBP7; details: H3R2me2a versus H3R2, from ITC Kd
T5 construct: DNA fragment encoding RBBP4/7 (1‐ 425) was cloned into pFBOH‐LIC donor plasmid; His (inferred from Ni-NTA purification; vector pFBOH-LIC); made in house; host or cells: sf9 insect cells (baculovirus)
T5 sequence (Q16576 whole entry, the tested form may be a part): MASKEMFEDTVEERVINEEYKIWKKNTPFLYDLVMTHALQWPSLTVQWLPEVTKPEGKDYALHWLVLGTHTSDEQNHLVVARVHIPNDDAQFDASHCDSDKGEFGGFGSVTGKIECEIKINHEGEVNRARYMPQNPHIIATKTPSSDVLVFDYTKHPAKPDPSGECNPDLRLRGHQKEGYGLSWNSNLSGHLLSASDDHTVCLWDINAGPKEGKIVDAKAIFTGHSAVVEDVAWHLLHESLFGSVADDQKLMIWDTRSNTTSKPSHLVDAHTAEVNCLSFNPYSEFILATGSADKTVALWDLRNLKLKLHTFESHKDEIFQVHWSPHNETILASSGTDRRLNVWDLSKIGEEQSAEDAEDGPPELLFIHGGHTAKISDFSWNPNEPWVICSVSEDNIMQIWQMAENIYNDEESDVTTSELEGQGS
Protocol: as §1

SMILES	Kd [1] [µM]	Kd (DPF2PHD) [2]	interaction with MSH6PWWP via ITC [3]	decrease in binding affinity by asymmetric methylation (RBBP4) (RBBP4)	decrease in binding affinity by asymmetric methylation (RBBP7) (RBBP7)
C[C@H](N)C(=O)N[C@@H](CC1(CNC(=N)N)N=N1)C(=O)N[C@H](C(=O)N[C@@H](CCCCN)C(=O)N[C@@H](CCC(N)=O)C(=O)N[C@H](C(=O)N[C@@H](C)C(=O)N[C@@H](CCCNC(=N)N)C(=O)N[C@@H](CCCCN)C(=O)N[C@@H](CO)C(=O)N[C@H](C(=O)NCC(=O)NCC(=O)N[C@@H](CCCCNC(=O)CCCC[C@@H]1SC[C@@H]2NC(=O)N[C@@H]21)C(=O)N[C@@H](C)C(N)=O)[C@@H](C)O)[C@@H](C)O)[C@@H](C)O [H3R2‐dz]	10.6				
C[C@H](N)C(=O)N[C@@H](CCCNC(=N)N)C(=O)N[C@H](C(=O)N[C@@H](CCC1(CN)N=N1)C(=O)N[C@@H](CCC(N)=O)C(=O)N[C@H](C(=O)N[C@@H](C)C(=O)N[C@@H](CCCNC(=N)N)C(=O)N[C@@H](CCCCN)C(=O)N[C@@H](CO)C(=O)N[C@H](C(=O)NCC(=O)NCC(=O)N[C@@H](CCCCNC(=O)CCCC[C@@H]1SC[C@@H]2NC(=O)N[C@@H]21)C(=O)N[C@@H](C)C(N)=O)[C@@H](C)O)[C@@H](C)O)[C@@H](C)O [H3K4‐dz]	6.4				
C[C@H](N)C(=O)N[C@@H](CCCNC(=N)N(C)C)C(=O)N[C@H](C(=O)N[C@@H](CCC1(CN)N=N1)C(=O)N[C@@H](CCC(N)=O)C(=O)N[C@H](C(=O)N[C@@H](C)C(=O)N[C@@H](CCCNC(=N)N)C(=O)N[C@@H](CCCCN)C(=O)N[C@@H](CO)C(=O)N[C@H](C(=O)NCC(=O)NCC(=O)N[C@@H](CCCCNC(=O)CCCC[C@@H]1SC[C@@H]2NC(=O)N[C@@H]21)C(=O)N[C@@H](C)C(N)=O)[C@@H](C)O)[C@@H](C)O)[C@@H](C)O [H3R2me2a]		no binding affinity detected	undetectable	three–fourfold decrease	three–fourfold decrease
